Like-named read-outs stand apart in the source and are kept apart here.
Columns and labels:
[1] = target: T1, rat brain farnesyl protein transferase (Rattus norvegicus, UniProt Q02293+Q04631); test: Farnesyl Protein Transferase Inhibition (PFT/FPT inhibitory activity); format: biochemical
T1 construct: 40-fold purified rat brain farnesyl protein transferase; from tissue; host or cells: rat brain
Description: The protein:farnesyltransferase (PFT) or farnesyl protein transferase (FPT) inhibitory activity of compounds of Formula I was assayed in HEPES buffer (pH 7.4) containing 5 mM potassium phosphate and 20 μM ZnCl2. The solution also contained 7 mM DTT, 1.2 mM MgCl2, 0.1 mM leupeptin, 0.1 mM pepstatin, and 0.2 mM phenylmethylsulfonyl fluoride. Assays were performed in 96 well plates (Wallec) and employed solutions composed of varying concentrations of a compound of Formula I in 100% DMSO. Upon addition of both substrates, radiolabeled farnesyl pyrophosphate ([1-^3 H], specific activity 15-30 Ci/mmol, final concentration 0.12 μM) and (biotinyl)-Ahe-Tyr-Lys-Cys-Val-Ile-Met peptide (final concentration 0.2 μM), the enzyme reaction was started by addition of 40-fold purified rat brain farnesyl protein transferase. After incubation at 37° for 30 minutes, the reaction was terminated by diluting the reaction 2.5-fold with a stop buffer containing 1.5M magnesium acetate, 0.2M H3 PO4, 0.5% BSA, and strepavidin beads (Amersham) at a concentration of 1.3 mg/mL. After allowing the plate to settle for 30 minutes at room temperature, radioactivity was quantitated on a microBeta counter (Model 1450, Wallec). Compounds of Formula I show IC50 values of 0.8 to 60 μM in this assay and are thus valuable inhibitors of protein:farnesyltransferase enzyme which may be used in the medical treatment of tissue proliferative diseases, including cancer and restenosis. The assay was also carried out without 5 mM potassium phosphate.

[2] = system: Ras protein; test: Gel Shift Assay against ras protein; format: cell-based; conditions: ras-transformed cells, 18-hour incubation; read-out: Gel Shift Minimum Effective Dose
Description: Twenty-four hours after planting 2×10^6 ras-transformed cells per treatment condition, the farnesylation inhibitor is added at varying concentrations. Following an 18-hour incubation period, cells are lysed in phosphate-buffered saline containing 1% Triton X-100, 0.5% sodium deoxycholate, and 0.1% SDS, pH 7.4 in the presence of several protease inhibitors (PMSF, antipain, leupeptin, pepstatin A, and aprotinin all at 1 μg/mL). Ras protein is immunoprecipitated from the supernatants by the addition of 3 μg v-H-ras Ab-2 (Y13-259 antibody from oncogene Science). After overnight immunoprecipitation, 30 μL of a 50% protein G-Sepharose slurry (Pharmacia) is added followed by 45-minute incubation. Pellets are resuspended in 2× tris-glycine loading buffer (Novex) containing 5% B-mercaptoethanol and then denatured by 5 minutes boiling prior to electrophoresis on 14% Tris-glycine SDS gels. Using Western transfer techniques, proteins are transferred to nitrocellulose membranes followed by blocking in blocking buffer. Upon overnight incubation with primary antibody (pan-ras Ab-2 from Oncogene Science), an antimouse HRP conjugate secondary antibody (Amersham) is employed for detection of the ras protein. Blots are developed using ECL techniques (Amersham).

[3] = Hepes with 5 mM PO4^-3, read-out: Farnesyl Protein Transferase Inhibition Hepes/5 mM PO4^-3 IC50
[4] = Hepes, without 5 mM phosphate, read-out: Farnesyl Protein Transferase Inhibition Hepes IC50

Structure (SMILES) | IC50 [1, 3] | IC50 [1, 4] | minimal effective concentration [2]
Cc1ccc2c(c1)N=C(NCc1cccnc1)c1ccccc1N2 [Example 8, (8-Methyl-5H-dibenzo[b,e][1,4]diazepin-11-yl)-pyridin-3-ylmethyl-amine] | 31 µM | 24 µM | 
Clc1ccc2c(c1)N=C(NCc1cccnc1)c1ccccc1O2 [Example 18, (8-Chloro-dibenzo[b,f][1,4]oxazepin-11-yl)-pyridin-3-ylmethyl-amine] | 16.5 µM | 8.7 µM | 
CN1c2ccc(Cl)cc2N=C(NCc2cccnc2)c2ccccc21 [Example 15, (8-Chloro-5-methyl-5H-dibenzo[b,e][1,4]diazepin-11-yl)-pyridin-3-ylmethyl-amine] | 17 µM | 12.2 µM | > 25 µM
Clc1ccc2c(c1)N=C(NCCc1cccnc1)c1ccccc1N2 [Example 3, (8-Chloro-5H-dibenzo[b,e][1,4]diazepin-11-yl)-(2-pyridin-3-yl-ethyl)-amine] | 57 µM | 36 µM | > 50 µM
Clc1ccc2c(c1)Nc1ccccc1C(NCc1cccnc1)=N2 [Example 6, (7-Chloro-5H-dibenzo[b,e][1,4]diazepin-11-yl)pyridin-3-ylmethyl-amine] | 5.6 µM | 5.5 µM | 50 µM
c1cncc(CNC2=Nc3ccccc3Nc3ccccc32)c1 [Example 7, (5H-Dibenzo[b,e][1,4]diazepin-11-yl)-pyridin-3-ylmethyl-amine] | 12 µM | 23 µM | 50 µM
Clc1ccc2c(c1)N=C(NCc1cccnc1)c1ccccc1N2 [Example 1, (8-Chloro-5H-dibenzo[b,e][1,4]diazepin-11-yl)pyridin-3-ylmethyl-amine] | 5 µM | 3.7 µM | 50 µM
c1cncc(CNC2=Nc3ccccc3Nc3ncccc32)c1 [Example 14, (11H-Benzo[b]pyrido[2,3-e][1,4]diazepin-5-yl)-pyridin-3-ylmethyl-amine] | 17 µM | 14 µM | 50 µM
COc1cc2c(cc1OC)C(NCc1cccnc1)=Nc1cc(Cl)c(Cl)cc1N2 [Example 13, (7,8-Dichloro-2,3-dimethoxy-5H-dibenzo[b,e][1,4]diazepin-11-yl)-pyridin-3-ylmethyl-amine] | 50 µM | 30 µM | 
Clc1ccc2c(c1)N=C(NCCc1cnc[nH]1)c1ccccc1N2 [Example 2, (8-Chloro-5H-dibenzo[b,e][1,4]diazepin-11-yl)-[2-(3H-imidazol-4-yl)-ethyl]-amine] | 3 µM | 2.4 µM | 25 µM
Clc1cc2c(cc1Cl)Nc1ccccc1C(NCc1cccnc1)=N2 [Example 11, (7,8-Dichloro-5H-dibenzo[b,e][1,4]diazepin-11-yl)-pyridin-3-ylmethyl-amine] | 1.6 µM | 0.8 µM | 50 µM
Clc1ccc2c(c1)N=C(NCCCn1ccnc1)c1ccccc1N2 [Example 5, (8-Chloro-5H-dibenzo[b,e][1,4]diazepin-11-yl)-(3-imidazol-1-yl-propyl)-amine] | 4.5 µM | 6.8 µM | 2.5 µM
Clc1ccc2c(c1)N=C(NCc1cccnc1)c1ccccc1S2 [Example 16, (8-Chloro-dibenzo[b,f][1,4]thiazepin-11-yl)pyridin-3-ylmethyl-amine] | 22 µM | 9.8 µM | 
Brc1ccc2c(c1)N=C(NCc1cccnc1)c1ccccc1N2 [Example 10, (8-Bromo-5H-dibenzo[b,e][1,4]diazepin-11-yl)-pyridin-3-ylmethyl-amine] | 36 µM | 6 µM | 
COc1ccc2c(c1)N=C(NCc1cccnc1)c1ccccc1N2 [Example 9, (8-Methoxy-5H-dibenzo[b,e][1,4]diazepin-11-yl)-pyridin-3-ylmethyl-amine] | 16 µM | 27 µM | 50 µM
c1ccc(COc2ccc3c(c2)N=C(NCc2cccnc2)c2ccccc2N3)cc1 [Example 12, (8-Benzyloxy-5H-dibenzo[b,e][1,4]diazepin-11-yl)-pyridin-3-ylmethyl-amine] | 37 µM | > 50 µM | > 50 µM
Clc1ccc2c(c1)N=C(NCCn1ccnc1)c1ccccc1N2 [Example 4, (8-Chloro-5H-dibenzo[b,e][1,4]diazepin-11-yl)-(2-imidazol-1-yl-ethyl)-amine] | 2.5 µM | 3 µM | 5 µM
O=S1(=O)c2ccc(Cl)cc2N=C(NCc2cccnc2)c2ccccc21 [Example 17, (8-Chloro-5,5-dioxo-5H-5λ^6-dibenzo[b,f][1,4]thiazepin-11-yl)-pyridin-3-ylmethyl-amine] | 6.1 µM | 5 µM | 
